# Measured values taken from PubChem BioAssay AID330 (DTP/NCI, 2004).
# “And” between values parts separate entries of the source, which are not always exact repeats. Identical values can stand only once. Inconclusive results and toxic doses are left out.
# System: P388 leukemia ip, CD2F1 mice, survival T/C
# Test: NCI In Vivo Anticancer Drug Screen. Data for tumor model P388 Leukemia (intraperitoneal) in CD2F1 (CDF1) mice
# Details: endpoint: median survival time, higher = longer survival
# How it was run: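 Mice carrying the transplanted tumor received test compound or vehicle. Survival was recorded in each group, and the value is the treated-group measurement divided by that of the vehicle-treated control group.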
# [1] = dose: 50.0 mg/kg/injection, schedule: Q01DX009 (ip), vehicle: saline
# [2] = dose: 100.0 mg/kg/injection, schedule: Q01DX009 (ip), vehicle: saline
# [3] = dose: 200.0 mg/kg/injection, schedule: Q01DX009 (ip), vehicle: saline
# [4] = dose: 60.0 mg/kg/injection, schedule: Q01DX005 (ip), vehicle: saline with Tween-80
# [5] = dose: 120.0 mg/kg/injection, schedule: Q01DX005 (ip), vehicle: saline with Tween-80
# [6] = dose: 100.0 mg/kg/injection, schedule: Q04DX003 (ip), vehicle: saline with Tween-80
# [7] = dose: 200.0 mg/kg/injection, schedule: Q04DX003 (ip), vehicle: saline with Tween-80
# [8] = dose: 400.0 mg/kg/injection, schedule: Q04DX003 (ip), vehicle: saline with Tween-80
# [9] = dose: 50.0 mg/kg/injection, schedule: Q01DX009 (ip), vehicle: Klucel (hydroxypropylcellulose) (HPC)
# [10] = dose: 100.0 mg/kg/injection, schedule: Q01DX009 (ip), vehicle: Klucel (hydroxypropylcellulose) (HPC)
# [11] = dose: 200.0 mg/kg/injection, schedule: Q01DX009 (ip), vehicle: Klucel (hydroxypropylcellulose) (HPC)
# [12] = dose: 240.0 mg/kg/injection, schedule: Q01DX005 (ip), vehicle: saline with Tween-80
# [13] = dose: 50.0 mg/kg/injection, schedule: Q01DX009 (ip), vehicle: saline with Tween-80
# [14] = dose: 25.0 mg/kg/injection, schedule: Q01DX009 (ip), vehicle: saline with Tween-80
# [15] = dose: 100.0 mg/kg/injection, schedule: Q01DX009 (ip), vehicle: saline with Tween-80
compound,measurement,setting,value
CNc1cc2nc3ccccc3nc2cc1O,T/C,[1],104 % of control
same,T/C,[2],92 % of control
same,T/C,[3],86 % of control
N#CCc1nc2ccccc2s1,T/C,"dose: 30.0 mg/kg/injection, schedule: Q01DX005 (ip), vehicle: saline with Tween-80",102 % of control
same,T/C,[4],107 % of control
same,T/C,[5],102 % of control
Cc1ccc(Nc2n[nH]c(=S)s2)cc1C,T/C,[6],90 % of control
same,T/C,[7],90 % of control
same,T/C,[8],95 % of control
CCCCCCCCCCCCN1CCS(=O)(=O)CC1,T/C,"dose: 25.0 mg/kg/injection, schedule: Q01DX009 (ip), vehicle: Klucel (hydroxypropylcellulose) (HPC)",112 % of control
same,T/C,[9],95 % of control
same,T/C,[10],118 % of control
same,T/C,[11],101 % of control
COc1cc([C@@H]2c3cc4c(cc3[C@H](O)[C@H]3COC(=O)[C@H]23)OCO4)cc(OC)c1OC,T/C,"dose: 0.5 mg/kg/injection, schedule: Q01DX005 (ip), vehicle: Klucel (hydroxypropylcellulose) (HPC)",121 % of control
same,T/C,"dose: 1.0 mg/kg/injection, schedule: Q01DX005 (ip), vehicle: Klucel (hydroxypropylcellulose) (HPC)",117 % of control
same,T/C,"dose: 1.0 mg/kg/injection, schedule: Q01DX005 (ip), vehicle: saline with Tween-80",118 % of control
same,T/C,"dose: 2.0 mg/kg/injection, schedule: Q01DX005 (ip), vehicle: saline with Tween-80",121 % of control
same,T/C,"dose: 8.0 mg/kg/injection, schedule: Q01DX005 (ip), vehicle: Klucel (hydroxypropylcellulose) (HPC)",152 % of control
CCCCNC(=O)NC1OC(CO)C(O)C1O (stereo unspecified),T/C,"dose: 50.0 mg/kg/injection, schedule: Q01DX005 (ip), vehicle: saline",98 % of control
same,T/C,"dose: 100.0 mg/kg/injection, schedule: Q01DX005 (ip), vehicle: saline",97 % of control
same,T/C,"dose: 200.0 mg/kg/injection, schedule: Q01DX005 (ip), vehicle: saline",100 % of control
C=CCSc1nnc(-c2ccc(C(C)(C)C)cc2)n1-c1cccc(C(F)(F)F)c1,T/C,[4],100 % of control
same,T/C,[5],100 % of control
same,T/C,[12],94 % of control
COc1cc2c(c(OC)c1OC)-c1ccc(OC)c(=O)cc1[C@@H](NC(=O)c1ccc([N+](=O)[O-])cc1)CC2,T/C,"dose: 0.25 mg/kg/injection, schedule: Q01DX009 (ip), vehicle: Klucel (hydroxypropylcellulose) (HPC)",109 % of control and 115 % of control
same,T/C,"dose: 0.5 mg/kg/injection, schedule: Q01DX009 (ip), vehicle: Klucel (hydroxypropylcellulose) (HPC)",114 % of control
same,T/C,"dose: 0.78 mg/kg/injection, schedule: Q01DX009 (ip), vehicle: Klucel (hydroxypropylcellulose) (HPC)",108 % of control
same,T/C,"dose: 1.0 mg/kg/injection, schedule: Q01DX009 (ip), vehicle: Klucel (hydroxypropylcellulose) (HPC)",114 % of control and 124 % of control
same,T/C,"dose: 1.56 mg/kg/injection, schedule: Q01DX009 (ip), vehicle: Klucel (hydroxypropylcellulose) (HPC)",112 % of control
same,T/C,"dose: 2.0 mg/kg/injection, schedule: Q01DX009 (ip), vehicle: Klucel (hydroxypropylcellulose) (HPC)",124 % of control
same,T/C,"dose: 3.12 mg/kg/injection, schedule: Q01DX009 (ip), vehicle: Klucel (hydroxypropylcellulose) (HPC)",160 % of control
same,T/C,"dose: 4.0 mg/kg/injection, schedule: Q01DX009 (ip), vehicle: Klucel (hydroxypropylcellulose) (HPC)",166 % of control
same,T/C,"dose: 6.25 mg/kg/injection, schedule: Q01DX009 (ip), vehicle: Klucel (hydroxypropylcellulose) (HPC)",198 % of control
COc1ccc(C2CC(=O)N(c3nccc(C)n3)C(=O)C2)cc1,T/C,"dose: 100.0 mg/kg/injection, schedule: Q04DX003 (ip), vehicle: saline",98 % of control
same,T/C,"dose: 200.0 mg/kg/injection, schedule: Q04DX003 (ip), vehicle: saline",99 % of control
same,T/C,"dose: 400.0 mg/kg/injection, schedule: Q04DX003 (ip), vehicle: saline",94 % of control
NC(=S)NNC(=O)C(Cc1ccccc1)NC(=O)OCc1ccccc1 (stereo unspecified),T/C,[13],93 % of control
CC(=O)OC1CCC(C2CCCCC2)CC1 (stereo unspecified),T/C,[2],102 % of control
same,T/C,[3],97 % of control
same,T/C,"dose: 400.0 mg/kg/injection, schedule: Q01DX009 (ip), vehicle: saline",101 % of control
O=C(O)C1Cc2c([nH]c3ccccc23)C2CCC(=O)N12 (stereo unspecified),T/C,"dose: 25.0 mg/kg/injection, schedule: Q04DX003 (ip), vehicle: suspension in saline",106 % of control
same,T/C,"dose: 50.0 mg/kg/injection, schedule: Q04DX003 (ip), vehicle: suspension in saline",96 % of control
same,T/C,"dose: 100.0 mg/kg/injection, schedule: Q04DX003 (ip), vehicle: suspension in saline",98 % of control
same,T/C,"dose: 200.0 mg/kg/injection, schedule: Q04DX003 (ip), vehicle: suspension in saline",98 % of control
O=C1SC2(CCCCC2)SC1=O,T/C,"dose: 50.0 mg/kg/injection, schedule: Q04DX003 (ip), vehicle: saline with Tween-80",109 % of control
same,T/C,[6],104 % of control
same,T/C,[7],104 % of control
COc1cc(/C=N/Nc2ccc([N+](=O)[O-])cc2)cc(OC)c1OC,T/C,[6],95 % of control
same,T/C,[8],87 % of control
Cc1cc(C2C(=O)c3ccccc3C2=O)cc(C(C)(C)C)c1O,T/C,"dose: 100.0 mg/kg/injection, schedule: Q04DX002 (ip), vehicle: saline",115 % of control
same,T/C,"dose: 200.0 mg/kg/injection, schedule: Q04DX002 (ip), vehicle: saline",107 % of control
same,T/C,"dose: 400.0 mg/kg/injection, schedule: Q04DX002 (ip), vehicle: saline",96 % of control
C[N+]1(C)CCC(=O)CC1,T/C,[14],109 % of control
same,T/C,[13],100 % of control
same,T/C,[15],104 % of control
NC(Cc1ccc2ccccc2c1Br)C(=O)O (stereo unspecified),T/C,[9],99 % of control
same,T/C,[10],99 % of control
same,T/C,[11],97 % of control
NC(CS)C(=O)O.[Cl-].[Cl-].[Cl-].[Cl-].[Pt+2] (stereo unspecified),T/C,"dose: 12.5 mg/kg/injection, schedule: Q01DX009 (ip), vehicle: saline",104 % of control
same,T/C,"dose: 25.0 mg/kg/injection, schedule: Q01DX009 (ip), vehicle: saline",95 % of control
same,T/C,[1],95 % of control
same,T/C,[2],99 % of control
same,T/C,[3],95 % of control
CC1(CCOCc2ccccc2)NC(=O)NC1=O (stereo unspecified),T/C,[15],90 % of control
same,T/C,"dose: 200.0 mg/kg/injection, schedule: Q01DX009 (ip), vehicle: saline with Tween-80",100 % of control
same,T/C,"dose: 400.0 mg/kg/injection, schedule: Q01DX009 (ip), vehicle: saline with Tween-80",100 % of control
CC(=O)CC(C)=O.CCN(CC)CC[C-]=O.[Pd+2],T/C,"dose: 0.78 mg/kg/injection, schedule: Q04DX003 (ip), vehicle: propolene glycol",97 % of control
same,T/C,"dose: 1.56 mg/kg/injection, schedule: Q04DX003 (ip), vehicle: propolene glycol",95 % of control
same,T/C,"dose: 3.13 mg/kg/injection, schedule: Q04DX003 (ip), vehicle: propolene glycol",97 % of control
same,T/C,"dose: 6.25 mg/kg/injection, schedule: Q04DX003 (ip), vehicle: propolene glycol",96 % of control
same,T/C,"dose: 12.5 mg/kg/injection, schedule: Q04DX003 (ip), vehicle: other",123 % of control
same,T/C,"dose: 12.5 mg/kg/injection, schedule: Q04DX003 (ip), vehicle: propolene glycol",91 % of control
same,T/C,"dose: 25.0 mg/kg/injection, schedule: Q04DX003 (ip), vehicle: other",120 % of control
CNCCCN1c2ccccc2CCc2ccccc21,T/C,"dose: 50.0 mg/kg/injection, schedule: Q01DX005 (ip), vehicle: saline with Tween-80",103 % of control
COc1cccc(C2=NC(=C3CCCCC3)C(=O)O2)c1,T/C,[4],105 % of control
same,T/C,[5],105 % of control
same,T/C,[12],100 % of control
CC(=O)Nc1ccc(S(=O)(=O)/N=C2\C=CC(=O)c3ccccc32)cc1,T/C,[14],105 % of control
same,T/C,[13],115 % of control
same,T/C,[15],110 % of control
COc1ccc(C(=O)c2ccccc2)c(OC(=O)Nc2c(Cl)cccc2Cl)c1,T/C,[4],93 % of control
same,T/C,[5],107 % of control
same,T/C,[12],88 % of control
CCOC(=O)N1c2ccccc2N(C(=O)OCC)C1C#N,T/C,[4],97 % of control
same,T/C,[5],96 % of control
same,T/C,[12],87 % of control
COC1=C(C)C2CC(=O)OC3CC4C(C)CC(O)C(=O)C4(C)C(C1=O)C32C (stereo unspecified),T/C,"dose: 0.5 mg/kg/injection, schedule: Q01DX009 (ip), vehicle: saline + alcohol",108 % of control
same,T/C,"dose: 1.0 mg/kg/injection, schedule: Q01DX009 (ip), vehicle: saline + alcohol",106 % of control
same,T/C,"dose: 2.0 mg/kg/injection, schedule: Q01DX009 (ip), vehicle: saline + alcohol",106 % of control
same,T/C,"dose: 4.0 mg/kg/injection, schedule: Q01DX009 (ip), vehicle: saline + alcohol",104 % of control
same,T/C,"dose: 8.0 mg/kg/injection, schedule: Q01DX009 (ip), vehicle: saline + alcohol",107 % of control
